Measurements from PubChem BioAssay AID1963839 (Molecular Pharmacology Branch, DTP, NCI, 2024).

System: 817829-284-R-J1-PDC complex spheroid viability
Assay: Anticancer human tumor 817829-284-R-J1-PDC patient-derived colon adenocarcinoma cell line growth inhibition [POLQ]
Details: for IC50: curve of first compound; for viability, T/C: stronger effect = lower value
In short: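 Growth inhibition in 3D: complex spheroids (tumor PDC, HUVEC, MSC) treated with POLQ inhibitor combinations; where Cmax unknown, highest tested concentration 10 microM, except SN-38 at 1 microM.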

[1] = second compound 0.0316 µM, first compound 0.0316 µM
[2] = second compound 0.0316 µM, first compound 0.1 µM
[3] = second compound 0.0316 µM, first compound 0.316 µM
[4] = second compound 0.0316 µM, first compound 1 µM
[5] = second compound 0.1 µM, first compound 0.0316 µM
[6] = second compound 0.1 µM, first compound 0.1 µM
[7] = second compound 0.1 µM, first compound 0.316 µM
[8] = second compound 0.1 µM, first compound 1 µM
[9] = second compound 0.316 µM, first compound 0.0316 µM
[10] = second compound 0.316 µM, first compound 0.1 µM
[11] = second compound 0.316 µM, first compound 0.316 µM
[12] = second compound 0.316 µM, first compound 1 µM
[13] = second compound 1 µM, first compound 0.0316 µM
[14] = second compound 1 µM, first compound 0.1 µM
[15] = second compound 1 µM, first compound 0.316 µM
[16] = second compound 1 µM, first compound 1 µM
[17] = second compound 3.16 µM, first compound 0.0316 µM
[18] = second compound 3.16 µM, first compound 0.1 µM
[19] = second compound 3.16 µM, first compound 0.316 µM
[20] = second compound 3.16 µM, first compound 1 µM
[21] = second compound 10 µM, first compound 0.0316 µM
[22] = second compound 10 µM, first compound 0.1 µM
[23] = second compound 10 µM, first compound 0.316 µM
[24] = second compound 10 µM, first compound 1 µM
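Further: spheroids exposed to compounds for 7 days.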
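Wherever viability, T/C is given: 100% = DMSO vehicle-treated spheroids.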

Structure (SMILES): C=CCn1c(=O)c2cnc(Nc3ccc(N4CCN(C)CC4)cc3)nc2n1-c1cccc(C(C)(C)O)n1 + Nc1ccc(C#CCN(C(=O)Cc2ncc(C(F)(F)F)cc2C(F)(F)F)c2ccc(F)cc2)nn1
- IC50 (second compound 0.0316 µM): 258 nM
- IC50 (second compound 0.1 µM): 219 nM
- IC50 (second compound 0.316 µM): 214 nM
- IC50 (second compound 1 µM): 259 nM
- IC50 (second compound 3.16 µM): 198 nM
- IC50 (second compound 10 µM): 236 nM
- viability, T/C (second compound 0.0316 µM, first compound 0.00316 µM): 90.9%
- viability, T/C (second compound 0.0316 µM, first compound 0.01 µM): 118%
- viability, T/C [1]: 97.2%
- viability, T/C [2]: 72.6%
- viability, T/C [3]: 47%
- viability, T/C [4]: 5.79%
- viability, T/C (second compound 0.1 µM, first compound 0.00316 µM): 103%
- viability, T/C (second compound 0.1 µM, first compound 0.01 µM): 103%
- viability, T/C [5]: 83.6%
- viability, T/C [6]: 79.9%
- viability, T/C [7]: 36%
- viability, T/C [8]: 6.74%
- viability, T/C (second compound 0.316 µM, first compound 0.00316 µM): 90.6%
- viability, T/C (second compound 0.316 µM, first compound 0.01 µM): 113%
- viability, T/C [9]: 87.8%
- viability, T/C [10]: 78%
- viability, T/C [11]: 36.1%
- viability, T/C [12]: 5.29%
- viability, T/C (second compound 1 µM, first compound 0.00316 µM): 110%
- viability, T/C (second compound 1 µM, first compound 0.01 µM): 115%
- viability, T/C [13]: 85.5%
- viability, T/C [14]: 82.4%
- viability, T/C [15]: 42.2%
- viability, T/C [16]: 5.43%
- viability, T/C (second compound 3.16 µM, first compound 0.00316 µM): 93.7%
- viability, T/C (second compound 3.16 µM, first compound 0.01 µM): 82.2%
- viability, T/C [17]: 100%
- viability, T/C [18]: 75.2%
- viability, T/C [19]: 31.8%
- viability, T/C [20]: 5.58%
- viability, T/C (second compound 10 µM, first compound 0.00316 µM): 90.7%
- viability, T/C (second compound 10 µM, first compound 0.01 µM): 105%
- viability, T/C [21]: 89.7%
- viability, T/C [22]: 80.7%
- viability, T/C [23]: 39.7%
- viability, T/C [24]: 5.43%

Structure (SMILES): COc1cc(C2c3cc4c(cc3C(OC3OC5COC(C)OC5C(O)C3O)C3COC(=O)C23)OCO4)cc(OC)c1O (centres undefined) + Nc1ccc(C#CCN(C(=O)Cc2ncc(C(F)(F)F)cc2C(F)(F)F)c2ccc(F)cc2)nn1
- IC50 (second compound 0.0316 µM): 68.1 nM
- IC50 (second compound 0.1 µM): 99.6 nM
- IC50 (second compound 0.316 µM): 76.2 nM
- IC50 (second compound 1 µM): 129 nM
- IC50 (second compound 3.16 µM): 83.6 nM
- IC50 (second compound 10 µM): 73.7 nM
- viability, T/C [1]: 67.2%
- viability, T/C [2]: 43.9%
- viability, T/C [3]: 15.4%
- viability, T/C [4]: 24.5%
- viability, T/C (second compound 0.0316 µM, first compound 3.16 µM): 13.7%
- viability, T/C (second compound 0.0316 µM, first compound 10 µM): 6.78%
- viability, T/C [5]: 100%
- viability, T/C [6]: 50.4%
- viability, T/C [7]: 18%
- viability, T/C [8]: 20.8%
- viability, T/C (second compound 0.1 µM, first compound 3.16 µM): 12.4%
- viability, T/C (second compound 0.1 µM, first compound 10 µM): 7.13%
- viability, T/C [9]: 88%
- viability, T/C [10]: 38.7%
- viability, T/C [11]: 15.3%
- viability, T/C [12]: 24.4%
- viability, T/C (second compound 0.316 µM, first compound 3.16 µM): 13.6%
- viability, T/C (second compound 0.316 µM, first compound 10 µM): 4.94%
- viability, T/C [13]: 79.9%
- viability, T/C [14]: 59.5%
- viability, T/C [15]: 16.7%
- viability, T/C [16]: 19.8%
- viability, T/C (second compound 1 µM, first compound 3.16 µM): 11.6%
- viability, T/C (second compound 1 µM, first compound 10 µM): 5.6%
- viability, T/C [17]: 74.6%
- viability, T/C [18]: 47.3%
- viability, T/C [19]: 17.4%
- viability, T/C [20]: 22.4%
- viability, T/C (second compound 3.16 µM, first compound 3.16 µM): 12%
- viability, T/C (second compound 3.16 µM, first compound 10 µM): 6.2%
- viability, T/C [21]: 71.9%
- viability, T/C [22]: 42.7%
- viability, T/C [23]: 18.8%
- viability, T/C [24]: 13.1%
- viability, T/C (second compound 10 µM, first compound 3.16 µM): 10.7%
- viability, T/C (second compound 10 µM, first compound 10 µM): 5.77%
